From US20170266269A1, “METHODS OF IDENTIFYING ANTIGENS FOR VACCINES” (UNIVERSITY OF WASHINGTON THROUGH ITS CENTER FOR …, priority 2014, published 2017)

Experiments:
[1] = test system: human peripheral blood mononuclear cells (PBMC); assay: IL-10 ELISPOT of human PBMC with epitope peptides; format: cell-based; conditions: CD105 and HIF1α peptides
Source text: (§1) A plurality of immunological assays may be used with the methods or processes described herein to test at least one peptides of putative epitopes or nucleic acids encoding peptides of putative epitopes to determine if the peptide of the putative epitope elicits an immune response, often the sub-type of the immune response may be determined, often the immunologic assay may be an ELISPOT assay, an ELISA assay, a multiplex assay or the like. For example, a suitable immunologic assay may include performing an ELISPOT assay using cells derived from donors. The ELISPOT assay may include isolating peripheral blood mononuclear cells (PBMC) from at least 10, preferably at least 40, subjects, often the subjects are human donors. The amount of at least one cytokine production in cells following administration of the peptides of putative epitopes may be determined by the ELISPOT assay. The at least one cytokine may be IFNγ and/or IL-10 such that data indicating cytokine production may represent a positive or a negative response of cells to the peptide sequence of the putative epitope. In some cases, positive responses may have a statistically significant difference (p<0.05) between a mean number of spots from five replicates in the experimental wells and the mean number from no antigen control wells. In other cases, negative responses may not have a statistically significant difference (p<0.05) between a mean number of spots from five replicates in the experimental wells and the mean number from no antigen control wells.
(§2) This example describes the identification of unique and discrete amino acid sequences of antigenic epitopes from breast cancer stem cell and epithelial mesenchymal transformation peptides CD105 and HIF-1a, both of which are promiscuous MHC class II binders and unexpectedly stimulate high (magnitude and incidence) interferon gamma (IFNγ) and low or no interleukin (IL)-10 responses from human peripheral blood mononuclear cells (PBMC). CD105 and HIF1α have been juxtaposed to allow construction of extended epitope sequences for inclusion in either a peptide or DNA plasmid-based multi-antigen polyepitope CD4+ T-cell vaccine targeting breast cancer stem cell and epithelial mesenchymal transformation antigens in cancer patients.
(§3) […] peptides, predicted to bind promiscuously to human MHCII, were selected using web-based algorithms according to the methods described herein. Peripheral blood mononuclear cells (PBMC) from 20 female breast cancer patients were cryopreserved and evaluated by ELISPOT for antigen specific IFNγ or IL-10 secretion, according to our published methods. […] Data is reported as the mean number of spots for each experimental antigen minus the mean number of spots detected in no antigen control wells (corrected spots per well: CSPW). Positive responses were defined by a statistically significant difference (p<0.05) between the mean number of spots from five replicates in the experimental wells and the mean number from no antigen control wells for an individual (see FIG. 15).
(§4) The unpaired, two-tailed Student's t-test, Fischer's exact test or X^2 test was used to evaluate differences between groups. […] All statistical analyses were performed using GraphPad Prism 5.04 (e.g., GraphPad Software).

[2] = test system: human peripheral blood mononuclear cells (PBMC); assay: IFNγ ELISPOT of human PBMC with epitope peptides; format: cell-based; conditions: CD105 and HIF1α peptides
Source text: as §1, §2, §3, §4

Row | Substance | IL-10 response [1] | IFNγ response [2]
1 | VLLVLSVNSSVFLHLQALGI [CD105 p 96-114] | low or no | strong
2 | GHKEAHILRVLPGHSAGPRTVTV [CD105 p214-236] | low or no | strong
3 | LHLAYNSSLVTFQEP [CD105 p116-130] | low or no | strong
4 | CD105 p626-642: peptide at the C-terminus of CD105 (VVAVAAPASSESSSTNH; UniProt P17813 626-642, looked up, fragment) | low or no | strong
5 | YELAHQLPLPHNVSSH [HIF1α p38-53] | no or low | strong
6 | MRLTISYLRVRKLLDAGDLDIED [HIF1α p60-82] | no or low | strong
